Assay results: ChEMBL document CHEMBL5107998, “Structure-Activity relationship of 1-(Furan-2ylmethyl)Pyrrolidine-Based Stimulation-2 (ST2) inhibitors for treating graft versus host disease” (Bioorg Med Chem, 2022)
Activity calls are given as the source filed them. The rule behind the calls is not given here.

Tests used:
[1] = Inhibition of ST2/IL-33 (unknown origin) interaction incubated for 1 hr by AlphaLISA assay; design: species or system Homo sapiens
[2] = Metabolic stability in pooled CD-1 mouse liver microsomes assessed as half life at 1 uM incubated for 60 mins in presence of NADPH by LC-MS/MS analysis; format: ADME, Microsome
[3] = Inhibition of ST2/IL-33 (unknown origin) interaction in HEK-Blue IL-33 cells assessed as reduction in NF-kapaB activation by measuring SEAP reporter level incubated for 20 hrs by QUANTI-Blue reagent based assay; format: cell-based; details: Homo sapiens, HEK-Blue IL-33, 20 h
[4] = Cytotoxicity against HEK-Blue IL-33 cells assessed as reduction in cell viability at upto 333 uM incubated for 20 hrs by CellTiter 96 aqueous one solution cell proliferation assay; format: toxicity, cell-based; details: human, hek-blue il-33, 20 h
[5] = Metabolic stability in pooled human liver microsomes assessed as half life at 1 uM incubated for 60 mins in presence of NADPH by LC-MS/MS analysis; format: ADME, Microsome
[6] = Half life in CD-1 mouse at 40 mg/kg, ip measured for 7 hrs by LC-MS/MS analysis; format: ADME, organism-based; details: in vivo
T-cell = test: Induction of expansion of C57BL/6 mouse tolerogenic CD4-positive […] regulatory T cells incubated for 7 days in presence of T cell-depleted and irradiated splenocytes from allogeneic C3H.SW mouse by mixed lymphocyte reaction assay; format: functional, cell-based; details: dose 1-10 µM, time 7.0 day, DDE = dose-dependent effect
CD4+ve Th = test: Inhibition of cell proliferation in C57BL/6 mouse spleen CD4-positive T cells at 1 to 10 uM incubated for 7 days in presence of T cell-depleted and irradiated splenocytes from allogeneic C3H.SW mouse by mixed lymphocyte reaction assay; format: functional, cell-based; details: dose 1-10 µM, time 7.0 day
CD8-positive T cell = test: Inhibition of cell proliferation in C57BL/6 mouse spleen CD8-positive T cells at 1 to 10 uM incubated for 7 days in presence of T cell-depleted and irradiated splenocytes from allogeneic C3H.SW mouse by mixed lymphocyte reaction assay; format: functional, cell-based; details: dose 1-10 µM, time 7.0 day
[7] = Reduction in expansion of C57BL/6 mouse tolerogenic CD4-positive […] regulatory T cells at 1 to 10 uM incubated for 7 days in presence of T cell-depleted and irradiated splenocytes from allogeneic C3H.SW mouse by mixed lymphocyte reaction assay relative to control; format: functional; design: scale not given: the % may be the effect or the level left; details: dose 1-10 µM, time 7 day

COc1ccccc1C1CCCN1Cc1ccc(-c2ccccc2[N+](=O)[O-])o1 (centres undefined)
IC50 [1]: 23.4 µM

O=[N+]([O-])c1ccccc1-c1ccc(CN2CCCC2c2ccc(N3CCCC3)cc2)o1 (centres undefined)
IC50 [1]: 12.9 µM
half-life at 1 µM [2]: 2.67 min
IC50 [3]: 62 µM
Activity [4]: Non-Toxic
half-life at 1 µM [5]: 10.1 min

COc1ccc(C2CCCN2Cc2ccc(-c3ccccc3[N+](=O)[O-])o2)cc1 (centres undefined)
IC50 [1]: 46.6 µM
half-life at 1 µM [2]: 0.73 min
IC50 [3]: 56.4 µM
t1/2 [6]: 85.8 min
half-life at 1 µM [5]: 1.1 min

COc1ccc(-c2ccc(CN3CCC[C@@H]3c3ccc(N(C)C)cc3)o2)c([N+](=O)[O-])c1
IC50 [1]: 10.4 µM
IC50 [3]: 56.4 µM

CN(C)c1ccc(C2CCCN2Cc2ccc(-c3ccccc3[N+](=O)[O-])o2)cc1 (centres undefined)
Activity (T-cell): Dde
inhibition (CD4+ve Th): Active
IC50 [1]: 19.6 µM
half-life at 1 µM [2]: 0.95 min
IC50 [3]: 33.3 µM
Activity [4]: Non-Toxic
inhibition (CD8-positive T cell): Active
t1/2 [6]: 224 min
half-life at 1 µM [5]: 2.54 min

Cc1cc([N+](=O)[O-])ccc1-c1ccc(CN2CCC[C@@H]2c2ccc(N(C)C)cc2)o1
IC50 [1]: 8.11 µM
IC50 [3]: 53.1 µM

CN(C)c1ccc(C2CCCN2Cc2ccc(-c3ccc(Cl)cc3[N+](=O)[O-])o2)cc1 (centres undefined)
IC50 [1]: 21.2 µM

Cc1cc([N+](=O)[O-])ccc1-c1ccc(CN2CCCC2c2ccc(N(C)C)cc2)o1 (centres undefined)
IC50 [1]: 7.73 µM
half-life at 1 µM [2]: 3.64 min
IC50 [3]: 42.5 µM
t1/2 [6]: 92.4 min
half-life at 1 µM [5]: 13.7 min

Cc1cc([N+](=O)[O-])ccc1-c1ccc(CN2CCC[C@H]2c2ccc(N(C)C)cc2)o1
IC50 [1]: 6.31 µM
IC50 [3]: 42.5 µM

Cc1ccc([N+](=O)[O-])c(-c2ccc(CN3CCCC3c3ccc(N(C)C)cc3)o2)c1 (centres undefined)
IC50 [1]: 8.06 µM
half-life at 1 µM [2]: 0.89 min
IC50 [3]: 39.1 µM
Activity [4]: Non-Toxic

O=[N+]([O-])c1ccccc1-c1ccc(CN2CCCC2c2ccc3c(c2)OCCO3)o1 (centres undefined)
IC50 [1]: 29.4 µM

COc1ccc(C2CCCN2Cc2ccc(-c3ccc([N+](=O)[O-])cc3)o2)cc1 (centres undefined)
IC50 [1]: 22.1 µM

COc1ccc(C2CCCN2Cc2ccc(-c3ccccc3C(=O)O)o2)cc1 (centres undefined)
IC50 [1]: 220 µM

O=[N+]([O-])c1ccccc1-c1ccc(CN2CCCC2c2ccccc2)o1 (centres undefined)
IC50 [1]: 97.6 µM

CN(C)c1cccc(C2CCCN2Cc2ccc(-c3ccccc3[N+](=O)[O-])o2)c1 (centres undefined)
IC50 [1]: 5.46 µM
half-life at 1 µM [2]: 0.78 min
IC50 [3]: 44.7 µM
half-life at 1 µM [5]: 0.57 min

CN(C)Cc1cccc(C2CCCN2Cc2ccc(-c3ccccc3[N+](=O)[O-])o2)c1 (centres undefined)
IC50 [1]: 54.3 µM

O=[N+]([O-])c1ccccc1-c1ccc(CN2CCCC2c2ccc(N3CCCCC3)cc2)o1 (centres undefined)
IC50 [1]: 21.5 µM
half-life at 1 µM [2]: 1.29 min
IC50 [3]: 53.8 µM
half-life at 1 µM [5]: 1.95 min

COc1cccc(C2CCCN2Cc2ccc(-c3ccccc3[N+](=O)[O-])o2)c1 (centres undefined)
IC50 [1]: 26.7 µM

COc1ccc(-c2ccc(CN3CCC[C@H]3c3ccc(N(C)C)cc3)o2)c([N+](=O)[O-])c1
IC50 [1]: 6.6 µM
IC50 [3]: 30.6 µM

O=C(O)c1ccc(C2CCCN2Cc2ccc(-c3ccccc3[N+](=O)[O-])o2)cc1 (centres undefined)
Activity [7]: 10%
IC50 [1]: 80.9 µM

COc1ccc(C2CCCN2Cc2ccc(-c3ccccc3C#N)o2)cc1 (centres undefined)
IC50 [1]: 116 µM

COc1ccc(C2CCCN2Cc2ccc(-c3ccccc3C(N)=O)o2)cc1 (centres undefined)
IC50 [1]: 167 µM

COC(=O)c1ccc(C2CCCN2Cc2ccc(-c3ccccc3[N+](=O)[O-])o2)cc1 (centres undefined)
IC50 [1]: 20.6 µM

Cc1ccc(-c2ccc(CN3CCCC3c3ccc(N(C)C)cc3)o2)c([N+](=O)[O-])c1 (centres undefined)
IC50 [1]: 9.11 µM
IC50 [3]: 41.4 µM
Activity [4]: Non-Toxic

COc1ccc(C2CCCN2Cc2ccc(-c3cccc([N+](=O)[O-])c3)o2)cc1 (centres undefined)
IC50 [1]: 35.4 µM

O=[N+]([O-])c1ccccc1-c1ccc(CN2CCCC2c2cccc(N3CCCCC3)c2)o1 (centres undefined)
IC50 [1]: 7.14 µM

COc1ccc(C2CCCN2Cc2ccc(-c3ccccc3F)o2)cc1 (centres undefined)
IC50 [1]: 115 µM

COc1ccc(-c2ccc(CN3CCCC3c3ccc(N(C)C)cc3)o2)c([N+](=O)[O-])c1 (centres undefined)
IC50 [1]: 12.3 µM
IC50 [3]: 48.5 µM
Activity [4]: Non-Toxic

O=[N+]([O-])c1ccccc1-c1ccc(CN2CCCC2c2cccc(N3CCCC3)c2)o1 (centres undefined)
IC50 [1]: 6.42 µM
half-life at 1 µM [2]: 5.61 min
IC50 [3]: 85.3 µM
half-life at 1 µM [5]: 2.27 min

Cc1cc([N+](=O)[O-])ccc1-c1ccc(CN2CCCC2c2cccc(N(C)C)c2)o1 (centres undefined)
IC50 [1]: 6.12 µM
half-life at 1 µM [2]: 4.2 min
half-life at 1 µM [5]: 4.7 min

COC(=O)Cc1cccc(C2CCCN2Cc2ccc(-c3ccccc3[N+](=O)[O-])o2)c1 (centres undefined)
IC50 [1]: 53 µM
